For one compound, Kd results are on record in paper PMC4525288, “Structures of FolT in substrate-bound and substrate-released conformations reveal a gating mechanism for ECF transporters” (Nature Communications, 2015).

Assay [1] deals with T1, EfFolT (Enterococcus faecalis, UniProt Q837A3, K36A).
T1 construct: gene EF_0940
The experiment in a line: biochemical.

Assay [2] concerns the target T2, EfFolT (Enterococcus faecalis, UniProt Q837A3, F80W).
T2 construct: gene EF_0940
The experiment in a line: biochemical.

The target of assay [3] is T3, EfFolT (Enterococcus faecalis, UniProt Q837A3, T81A).
T3 construct: gene EF_0940
Kind of assay: biochemical.

The target in assay [4] is T4, EfFolT (Enterococcus faecalis, UniProt Q837A3, K145A).
T4 construct: gene EF_0940
Kind of assay: biochemical.

The target in assay [5] is T5, EfFolT (Enterococcus faecalis, UniProt Q837A3, Y129A).
T5 construct: gene EF_0940
The experiment in a line: biochemical.

In assay [6] the target is T6, EfFolT (Enterococcus faecalis, UniProt Q837A3).
T6 construct: gene EF_0940; full-length S component without ECF module; N-terminal His6 tag (pET28a, NdeI/XhoI), E. coli BL21(DE3), detergent-purified
T6 sequence (Q837A3 1-179): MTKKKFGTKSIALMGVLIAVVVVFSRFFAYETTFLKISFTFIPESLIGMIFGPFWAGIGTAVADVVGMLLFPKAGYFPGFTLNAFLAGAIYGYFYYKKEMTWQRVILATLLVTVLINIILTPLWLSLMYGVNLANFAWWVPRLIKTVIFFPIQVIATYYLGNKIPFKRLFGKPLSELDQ
Kind of assay: isothermal titration calorimetry; crystal structure […] A. The class given is binding. The following applies: read-out: Dissociation constant/KD. Background: In ITC the heat of successive injections is recorded.

In assay [7] the target is T7, EfFolT (Enterococcus faecalis, UniProt Q837A3, T121A).
T7 construct: gene EF_0940
Kind of assay: biochemical.

In assay [8] the target is T8, EfFolT (Enterococcus faecalis, UniProt Q837A3, K36R).
T8 construct: gene EF_0940
Kind of assay: biochemical.

Assay [9] deals with T9, EfFolT (Enterococcus faecalis, UniProt Q837A3, K145T).
T9 construct: gene EF_0940
Kind of assay: biochemical.

The target of assay [10] is T10, EfFolT (Enterococcus faecalis, UniProt Q837A3, N117A).
T10 construct: gene EF_0940
Kind of assay: biochemical.

In assay [11] the target is T11, EfFolT (Enterococcus faecalis, UniProt Q837A3, R26A).
T11 construct: gene EF_0940
Kind of assay: biochemical.

As to `Nc1nc2ncc(CNc3ccc(C(=O)N[C@@H](CCC(=O)O)C(=O)O)cc3)nc2c(=O)[nH]1` [folate], the Kd in assay [1] is 5400 nM; in assay [2], 499 ± 25.8 nM; in [3], 813 ± 162 nM; in [4] it was 3300 ± 198 nM; in assay [5], 635 ± 33.6 nM; in assay [6], 29.8 ± 4.7 nM. Moreover, the Kd in [7] was 288 ± 21.1 nM; in assay [8], 91.5 ± 7.5 nM; in [9] it was 3690 nM; in [10] it was 68.6 ± 6.4 nM; in assay [11], 252 ± 22 nM.
